For one data set, the system named is MRC-5 cells. The note with it: human, 6 days.
Data set [1] has as its system HCMV strain AD169 in MRC-5 cells. The data set is described as follows: HCMV plaque reduction assay. The settings on record: HCMV AD169 in MRC-5 cells; peptide 10 micrograms per ml; 7-10 days. A general note: In a plaque reduction assay, fewer plaques than in the control indicate reduced infectivity or spread.
For a further data set, the system named is HepG2-2.2.15 cells. The settings on record: peptide 10 micrograms per ml, dye uptake assay.
Data set [2] concerns HIV-1IIIB in CEM-SS cells. Briefly: HIV-1 antiviral assay, CPE reduction (MTS). The settings on record: peptide 10 micrograms per ml, 6 days post-infection.
The subject of the next data set is CEM-SS cells. The note with it: peptide 10 micrograms per ml, MTS.
A short description of data set [3]: in vitro. The settings on record: human, CEM-SS cells.
A short description of data set [4]: in vitro. The note with it: human.
Data set [5] can be described thus: Cytotoxicity in MRC-5 cells (CellTiter 96). The note with it: human, MRC-5 cells (embryonal lung fibroblasts).
Another data set has as its system Streptococcus pneumoniae. The note with it: 5 micrograms per ml.
For the next data set, the system named is Pseudomonas aeruginosa. The settings on record: 5 micrograms per ml.
The subject of data set [6] is Methicillin Resistant Staphylococcus Aureus (MRSA). The note with it: 5 micrograms per ml.

Consider `Nc1nc(O)c2ncn(COC(CO)CO)c2n1` [Ganciclovir], for which the “% Cell viability” value in the data set with MRC-5 cells worked out at 100%. For the same compound, the “% plaque reduction” value in data set [1] was found to be 100%.
As to `Nc1ccn([C@@H]2CS[C@H](CO)O2)c(=O)n1` [3TC, Lamivudine], the “% Cell viability” value in the data set with HepG2-2.2.15 cells is given as 95.8%.
Take `CC(C)(C)NC(=O)[C@@H]1CN(Cc2cccnc2)CCN1C[C@@H](O)C[C@@H](Cc1ccccc1)C(=O)N[C@H]1c2ccccc2C[C@H]1O` [Indinavir]: the “% CPE reduction in HIV-1 infected CEM-SS cells” value in data set [2] amounted to 100%.
In the case of `Cc1cn([C@H]2C[C@H](N=[N+]=[N-])[C@@H](CO)O2)c(=O)[nH]c1=O` [AZT], the “% CPE reduction in HIV-1 infected CEM-SS cells” value in data set [2] was 99%. Further, the “% Cell viability” value in the data set with CEM-SS cells is 97%.
The viability is a read-out of living cells in per cent, often relative to untreated cells. A word on the % inhibition: it is the share of the control response that was lost under treatment. Higher therefore signals strong suppression. On to `CC[C@H](C)[C@H](NC(=O)[C@H](CCCCN)NC(=O)[C@H](CCC(=O)O)NC(=O)[C@H](CCCCN)NC(=O)[C@H](CO)NC(=O)[C@H](CCCCN)NC(=O)[C@H](CCCNC(=N)N)NC(=O)[C@H](Cc1ccccc1)NC(=O)[C@H](Cc1ccccc1)NC(=O)[C@H](CC(=O)O)NC(=O)CNC(=O)[C@H](CC(C)C)NC(=O)[C@@H](N)CC(C)C)C(=O)NCC(=O)N[C@@H](CCCCN)C(=O)N[C@@H](CCC(=O)O)C(=O)N[C@@H](Cc1ccccc1)C(=O)N[C@@H](CCCCN)C(=O)N[C@@H](CCCNC(=N)N)C(=O)N[C@H](C(=O)N[C@H](C(=O)N[C@@H](CCC(N)=O)C(=O)N[C@@H](CCCNC(=N)N)C(=O)N[C@H](C(=O)N[C@@H](CCCCN)C(=O)N[C@@H](CC(=O)O)C(=O)N[C@@H](Cc1ccccc1)C(=O)N[C@@H](CC(C)C)C(=O)N[C@@H](CCCNC(=N)N)C(=O)N[C@@H](CC(N)=O)C(=O)N[C@@H](CC(C)C)C(=O)N[C@H](C(=O)N1CCC[C@H]1C(=O)N[C@@H](CCCNC(=N)N)C(=O)N[C@H](C(=O)N[C@@H](CCC(=O)O)C(=O)N[C@@H](CO)C(N)=O)[C@@H](C)O)C(C)C)[C@@H](C)CC)C(C)C)[C@@H](C)CC` [LL-37], for which, in the data set “in vitro [3]”, the viability at 10 micrograms per ml stood at 86.4%. The viability at 144 h, 10 micrograms per ml in “in vitro [4]” came to 100%. In data set [5], this compound displayed a viability at 144 h of 100%. For the same compound, the “% inhibition” value (with Streptococcus pneumoniae; in the data set with Pseudomonas aeruginosa; in [6]) was 0.0% each time.

The values are drawn from patent publication US20100210539A1, “USE OF PEPTIDE LL-37 AS A THERAPEUTIC AGENT” (priority 2007, published 2010).
